{"source": "patent US20250206755A1", "about": "“ANTIMICROBIAL AGENTS” (RUTGERS, THE STATE UNIVERSITY OF NEW JERSEY, priority 2012, published 2025)", "key": {"[1]": {"tested_on": "S. aureus ATCC 19636 (MSSA)", "assay": "In vivo efficacy, mouse peritonitis model of systemic infection (Test D), MSSA", "settings": "mice", "description": "Antistaphylococcal efficacy in vivo was assessed in a mouse peritonitis model of systemic infection with S. aureus ATCC 19636 (MSSA) or ATCC 43300 (MRSA). These studies were conducted in full compliance with the standards established by the US National Research Council's Guide for the Care and Use of Laboratory Animals, and were approved by the Institutional Animal Care and Use Committee (IACUC) of Rutgers University. Groups of 4-6 female Swiss-Webster mice with an average weight of 25 g were infected intraperitoneally with a lethal inoculum of each bacterial strain in saline. The inoculum of S. aureus ATCC 43300 contained 1.0×10^8 CFUs/mL of bacteria, while the inoculum of S. aureus ATCC 19636 contained 0.8×10^7 CFUs/mL of bacteria. All the inocula also contained porcine mucin (Sigma-Aldrich, Co.) at a (w/v) percentage of 1.5% (in ATCC 19636 inocula) or 5% (in the ATCC 43300 inoculum). The differing compositions of the inocula of these S. aureus strains were selected based on the virulence of each strain, with MSSA ATCC 19636 being the more virulent strain and MRSA ATCC 43300 being the less virulent strain.\nAll compound and vehicle intravenous (i.v.) administrations were by tail vein injection, with 17 being formulated at 2.0 mg/mL and 44 being formulated at both 2.0 and 3.0 mg/ml in 10 mM citrate (pH 2.6).\nIn the MSSA ATCC 19636 experiments, the first dose of compound was administered 10 minutes after infection, with subsequent doses being administered at 12-minute intervals thereafter unless otherwise noted. In the MRSA studies, the first dose of compound was administered one hour after infection, with subsequent doses being administered at 12-minute intervals thereafter unless otherwise indicated.\nThe body temperatures of all mice were monitored for a period of 5 days after infection. Body temperatures were recorded at the Xiphoid process using a noninvasive infrared thermometer (Braintree Scientific, Inc., Braintree, MA). Infected mice with body temperatures ≤28.9° C. were viewed as being unable to recover from the infection and were euthanized."}, "MSSA": {"tested_on": "MSSA", "assay": "Antibacterial assay, broth microdilution MIC (Test A)", "format": "cell-based", "settings": "Staphylococcus aureus, MIC values may be lower as solubility and aggregate formation may reduce observed activity", "description": "(§1) Antibacterial activity can be determined as per Clinical and Laboratory Standards Institute (CLSI) guidelines using a broth microdilution assay in which log-phase bacteria are grown at 37° C. in appropriate medium containing two-fold serial dilutions of a compound to yield final concentrations ranging from 256 to 0.06 μg/mL. For determination of minimal inhibitory concentration (MIC) values, bacterial growth is monitored after 24 to 48 hours by measuring optical density at 600 nm."}, "MRSA": {"tested_on": "MRSA", "assay": "Antibacterial assay, broth microdilution MIC (Test A)", "format": "cell-based", "settings": "Staphylococcus aureus, MIC values may be lower as solubility and aggregate formation may reduce observed activity", "description": "as §1"}, "[2]": {"tested_on": "S. aureus ATCC 43300 (MRSA)", "assay": "In vivo efficacy, mouse peritonitis model of systemic infection (Test D), MRSA", "settings": "mice, p.o., total dose 4.8 mg/mouse"}, "[3]": {"settings": "i.v., 2x, total dose 1.8 mg/mouse"}, "[4]": {"settings": "p.o., 1x, total dose 0.8 mg/mouse"}, "[5]": {"settings": "p.o., 2x, total dose 1.6 mg/mouse"}, "[6]": {"settings": "p.o., 3x, total dose 2.4 mg/mouse"}, "[7]": {"settings": "p.o., 4x, total dose 3.2 mg/mouse"}, "[8]": {"settings": "i.v., 1x, total dose 0.6 mg/mouse, first dose immediately prior to infection"}, "[9]": {"settings": "i.v., 2x, total dose 1.2 mg/mouse, first dose immediately prior to infection, subsequent doses 15 minutes following"}, "[10]": {"settings": "p.o., 1x, total dose 0.8 mg/mouse, first dose 5 minutes prior to infection"}, "[11]": {"settings": "p.o., 2x, total dose 1.6 mg/mouse, first dose 5 minutes prior to infection, subsequent doses 15 minutes apart"}, "[12]": {"settings": "p.o., 4x, total dose 3.2 mg/mouse, first dose 5 minutes prior to infection, subsequent doses 15 minutes apart"}, "[13]": {"settings": "6x (no footnote: first dose one hour after infection, 12-minute intervals)"}, "[14]": {"settings": "6x, first dose 5 minutes prior to infection, subsequent doses 12 minutes apart"}, "[15]": {"settings": "6x, first dose 10 minutes post-infection, subsequent doses 12 minutes apart"}}, "data": [{"molecule": "CN1CCC(C(=O)NC(=O)c2c(F)ccc(OCc3nc4cc(C(F)(F)F)cnc4s3)c2F)CC1", "note": "[Example 44]", "values": [{"measurement": "Survival (%) 24 Hrs", "setting": "[1]; [3]", "value": 100, "unit": "%"}, {"measurement": "Survival (%) 48 Hrs", "setting": "[1]; [3]", "value": 100, "unit": "%"}, {"measurement": "Survival (%) 72 Hrs", "setting": "[1]; [3]", "value": 100, "unit": "%"}, {"measurement": "Survival (%) 24 Hrs", "setting": "[1]; [4]", "value": 50, "unit": "%"}, {"measurement": "Survival (%) 48 Hrs", "setting": "[1]; [4]", "value": 50, "unit": "%"}, {"measurement": "Survival (%) 72 Hrs", "setting": "[1]; [4]", "value": 50, "unit": "%"}, {"measurement": "Survival (%) 24 Hrs", "setting": "[1]; [5]", "value": 100, "unit": "%"}, {"measurement": "Survival (%) 48 Hrs", "setting": "[1]; [5]", "value": 100, "unit": "%"}, {"measurement": "Survival (%) 72 Hrs", "setting": "[1]; [5]", "value": 100, "unit": "%"}, {"measurement": "Survival (%) 24 Hrs", "setting": "[1]; [6]", "value": 100, "unit": "%"}, {"measurement": "Survival (%) 48 Hrs", "setting": "[1]; [6]", "value": 100, "unit": "%"}, {"measurement": "Survival (%) 72 Hrs", "setting": "[1]; [6]", "value": 100, "unit": "%"}, {"measurement": "Survival (%) 24 Hrs", "setting": "[1]; [7]", "value": 100, "unit": "%"}, {"measurement": "Survival (%) 48 Hrs", "setting": "[1]; [7]", "value": 100, "unit": "%"}, {"measurement": "Survival (%) 72 Hrs", "setting": "[1]; [7]", "value": 100, "unit": "%"}]}, {"molecule": "CCC(=O)NC(=O)c1c(F)ccc(OCc2nc3cc(Cl)ccc3s2)c1F", "note": "[Example 5]", "values": [{"measurement": "MIC", "setting": "MSSA", "value": 2, "unit": "µg/mL"}, {"measurement": "MIC", "setting": "MRSA", "value": 2, "unit": "µg/mL"}]}, {"molecule": "CN1CCC(C(=O)NC(=O)c2c(F)ccc(OCc3nc4cc(Cl)cnc4s3)c2F)CC1", "note": "[Example 17]", "values": [{"measurement": "Survival (%) 24 Hrs", "setting": "[1]; [8]", "value": 0, "unit": "%"}, {"measurement": "Survival (%) 48 Hrs", "setting": "[1]; [8]", "value": 0, "unit": "%"}, {"measurement": "Survival (%) 72 Hrs", "setting": "[1]; [8]", "value": 0, "unit": "%"}, {"measurement": "Survival (%) 24 Hrs", "setting": "[1]; [9]", "value": 0, "unit": "%"}, {"measurement": "Survival (%) 48 Hrs", "setting": "[1]; [9]", "value": 0, "unit": "%"}, {"measurement": "Survival (%) 72 Hrs", "setting": "[1]; [9]", "value": 0, "unit": "%"}, {"measurement": "Survival (%) 24 Hrs", "setting": "[1]; [10]", "value": 0, "unit": "%"}, {"measurement": "Survival (%) 48 Hrs", "setting": "[1]; [10]", "value": 0, "unit": "%"}, {"measurement": "Survival (%) 72 Hrs", "setting": "[1]; [10]", "value": 0, "unit": "%"}, {"measurement": "Survival (%) 24 Hrs", "setting": "[1]; [11]", "value": 0, "unit": "%"}, {"measurement": "Survival (%) 48 Hrs", "setting": "[1]; [11]", "value": 0, "unit": "%"}, {"measurement": "Survival (%) 72 Hrs", "setting": "[1]; [11]", "value": 0, "unit": "%"}, {"measurement": "Survival (%) 24 Hrs", "setting": "[1]; [12]", "value": 100, "unit": "%"}, {"measurement": "Survival (%) 48 Hrs", "setting": "[1]; [12]", "value": 100, "unit": "%"}, {"measurement": "Survival (%) 72 Hrs", "setting": "[1]; [12]", "value": 100, "unit": "%"}, {"measurement": "Survival (%) 48 Hrs", "setting": "[2]; [13]", "value": 50, "unit": "%"}, {"measurement": "Survival (%) 72 Hrs", "setting": "[2]; [13]", "value": 50, "unit": "%"}, {"measurement": "Survival (%) 24 Hrs", "setting": "[2]; [14]", "value": 100, "unit": "%"}, {"measurement": "Survival (%) 48 Hrs", "setting": "[2]; [14]", "value": 100, "unit": "%"}, {"measurement": "Survival (%) 72 Hrs", "setting": "[2]; [14]", "value": 100, "unit": "%"}, {"measurement": "Survival (%) 24 Hrs", "setting": "[2]; [15]", "value": 100, "unit": "%"}, {"measurement": "Survival (%) 48 Hrs", "setting": "[2]; [15]", "value": 100, "unit": "%"}, {"measurement": "Survival (%) 72 Hrs", "setting": "[2]; [15]", "value": 100, "unit": "%"}]}]}
